# Experimental data reported in the supplement of paper PMC10307832.
# How the values were obtained:
# Assay in all cases: relative viability (nuclei count vs DMSO), 5 days (fraction); higher = more cells survive
# [1] = compound: CCn1c(-c2nonc2N)nc2cnc(Oc3cccc(NC(=O)c4ccc(OCCN5CCOCC5)cc4)c3)cc21 + CC(=O)Nc1cccc(-n2c(=O)n(C3CC3)c(=O)c3c(Nc4ccc(I)cc4F)n(C)c(=O)c(C)c32)c1 [Trametinib] (partner 0.02 µM)
# Summary of the method: (§1)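 Nuclei were stained with Hoechst during a one-step fixation (final 0.05% Triton X-100, 1% formaldehyde, 1 ug/ml Hoechst) carried out 5 days after dosing, then counted on 4× images. The cells, lung cancer lines in 1536-well plates, had been dosed by pin tool the day after seeding with one drug alone or a fixed anchor-drug dose plus five library-drug doses (not always all listed) in √10 steps. Relative viability is the nuclei count in treated wells divided by that in vehicle wells, and each value is the median of duplicate plates.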
# [2] = compound: CCn1c(-c2nonc2N)nc2cnc(Oc3cccc(NC(=O)c4ccc(OCCN5CCOCC5)cc4)c3)cc21 + CC(=O)c1c(C)c2cnc(Nc3ccc(N4CCNCC4)cn3)nc2n(C2CCCC2)c1=O [Palbociclib] (partner 0.5 µM)
# Summary of the method: as §1
# [3] = compound: CCn1c(-c2nonc2N)nc2cnc(Oc3cccc(NC(=O)c4ccc(OCCN5CCOCC5)cc4)c3)cc21 + Cc1cc(Nc2cc(N3CCN(C)CC3)nc(Sc3ccc(NC(=O)C4CC4)cc3)n2)n[nH]1 [Tozasertib] (partner 0.1 µM)
# Summary of the method: as §1
# [4] = compound: CCn1c(-c2nonc2N)nc2cnc(Oc3cccc(NC(=O)c4ccc(OCCN5CCOCC5)cc4)c3)cc21 + Cc1nc(NC(=O)N2CCC[C@H]2C(N)=O)sc1-c1ccnc(C(C)(C)C(F)(F)F)c1 [Alpelisib] (partner 2 µM)
# Summary of the method: as §1
cell line,measurement,setting,value
UMC-11,relative viability,[1]; first compound 0.04 µM,0.609
same,relative viability,[1]; first compound 0.1265 µM,0.607
same,relative viability,[1]; first compound 0.4 µM,0.298
same,relative viability,[1]; first compound 1.265 µM,0.0887
same,relative viability,[1]; first compound 4 µM,0.963
same,relative viability,[2]; first compound 0.04 µM,0.277
same,relative viability,[2]; first compound 0.1265 µM,0.379
same,relative viability,[2]; first compound 0.4 µM,0.269
same,relative viability,[2]; first compound 1.265 µM,0.151
same,relative viability,[2]; first compound 4 µM,0.248
same,relative viability,[3]; first compound 0.04 µM,0.206
same,relative viability,[3]; first compound 0.1265 µM,0.212
same,relative viability,[3]; first compound 0.4 µM,0.205
same,relative viability,[3]; first compound 1.265 µM,0.16
same,relative viability,[3]; first compound 4 µM,0.186
same,relative viability,[4]; first compound 0.04 µM,1.17
same,relative viability,[4]; first compound 0.1265 µM,0.991
same,relative viability,[4]; first compound 0.4 µM,0.78
same,relative viability,[4]; first compound 1.265 µM,0.251
same,relative viability,[4]; first compound 4 µM,0.233
